Assays:
[1] = test system: C26 murine colon carcinoma; assay: Tumor growth inhibition, effect of dose, C26 model; format: in vivo, Balb/c mice; conditions: 20 mg/kg or 50 mg/kg, single injection; one week later
Procedure: (§1) FIG. 2: Effect of dose of free or liposomal PLP on tumor growth in B16- or C26-bearing mice. Mice received a single injection with the indicated dose and formulation of PLP on the day tumors became palpable. Tumor volume one week later is reported. Mean±S.D. N=5 mice/experimental group;
(§2) B16 murine melanoma and C26 murine colon carcinoma cells were cultured at 37° C. in a 5% CO2-containing humidified atmosphere in DMEM medium (Gibco, Breda, The Netherlands) containing 10% (v/v) fetal calf serum supplemented with 2 mM L-glutamine, 100 IU/ml penicillin, 100 μg/ml streptomycin and 0.25 μg/ml amphotericin B (Gibco).
(§3) Tissue distribution of ^111In-labeled PEG liposomes in tumor-bearing mice. 1×10^5 B 16 or C26 cells were inoculated subcutaneously in the flank of C57B1/6 of Balb/c mice, respectively. […] At 6 hours and 24 hours after injection, animals were sacrificed, a blood sample was taken, and tumor, lung, liver, spleen and kidneys were dissected, weighed and radioactivity was counted. […]
(§4) Mice received a single intravenous injection of an indicated dose of free PLP or liposomal PLP at the time when the tumor became palpable. At seven days after treatment, tumor size was measured and tumor volume calculated according to the equation V=0.52×a^2×b, wherein a is the smallest and b is the largest superficial diameter.

B16 murine melanoma [2] = assay: Tumor growth inhibition, effect of tumor size (time of injection), B16 model; format: in vivo, C57B1/6 mice
Procedure: (§5) FIG. 3: Effect of tumor size on anti-tumor effects of free or liposomal PLP in B16- or C26-bearing mice. Mice received either single or multiple injections with 20 mg/kg PLP of the indicated formulations. Arrows indicate treatment. Mean±S.D. is reported. N=5 mice/experimental group; and
as §2
(§6) As a reference, B16F10 tumors became palpable around seven days and C26 tumors around eleven days after tumor cell inoculation. Tumor size was measured regularly and tumor volume was calculated as described above.
(§7) To determine the effect of time of injection of free or liposomal PLP on tumor growth inhibition, the formulations were injected at a dose of 20 mg/kg at day 1, 7 and 14 or single injection at day 7 or day 14. See, in this light, FIG. 3 showing the results.

[3] = test system: C26 murine colon carcinoma; assay: Tumor growth inhibition, effect of tumor size (time of injection), C26 model; format: in vivo, Balb/c mice
Procedure: as §5, §2, §6, §7

B16 murine melanoma [4] = assay: Tumor growth inhibition, effect of dose, B16 model; format: in vivo, C57B1/6 mice; conditions: 20 mg/kg or 50 mg/kg, single injection; one week later
Procedure: as §1, §2, §3, §4

[5] = single injection 20 mg/kg at day 7

prednisolone disodium phosphate [free PLP]
tumor volume compared to buffer-treated control animals [1]: did not result in significantly different tumor volumes | tumor growth inhibition between day 1 and day 7 (B16 murine melanoma [2]; 20 mg/kg i.v. at day 1): Neither liposomal PLP nor free PLP inhibited tumor growth | tumor growth inhibition as compared to controls, between day 7 and day 14 (B16 murine melanoma [2]; 20 mg/kg i.v. at day 1 and second injection at day 7, p<0.05): did not reduce tumor volume | significantly smaller tumor volume after single injection (B16 murine melanoma [2]; [5]): only seen after treatment with liposomal PLP | tumor growth inhibition between day 1 and day 7 ([3]; 20 mg/kg i.v. at day 1): Neither liposomal PLP nor free PLP inhibited tumor growth | tumor growth inhibition, multiple injections ([3]; 20 mg/kg i.v. at day 1, 7 and 14): did not inhibit tumor growth | significance of tumor volume compared to controls [3, 5]: not significantly smaller with either treatment | tumor volume compared to buffer-treated control animals (B16 murine melanoma [4]): did not result in significantly different tumor volumes

From patent US20050202078A1, “Vesicle-encapsulated corticosteroids for the treatment of cancer” (priority 2002, published 2005)
